Source: patent US9474740B2, “Ectoparasite control agent” (Nippon Soda Co., Ltd., priority 2013, dated 2016)

What was measured:
[1] = test system: fleas (Ctenocephalides felis); assay: Parasite extermination test of dog in vivo, C. felis; conditions: topical spot-on 20 mg/kg
Protocol: Each type of the test compounds was applied to four dogs. One day before treatment (−1 day) of the test compound, about 50 adults of Rhipicephalus sanguineus to which food was not given, per dog, were parasitized. It was estimated that 50% of the 50 ticks were male and 50% of the 50 ticks were female.
Separately, the tested compound was dissolved in a mixed solvent consisting of 80% by volume of benzyl alcohol and 20% by volume of isopropyl myristate such that the concentration became 50 mg/ml, whereby a test solution was prepared.
On zeroth day, several different spots of the interscapular region were treated with the test solution by “topical spot-on” such that the test compound was treated per 20 mg/kg per body weight of a dog. For comparison, a negative control was also prepared.
In addition, on the 12th and 28th day, 50 adult fleas (Ctenocephalides felis) to which food was not given were parasitized together.
On the 7th, 14th, 21 st, 30th and 35th day, 48 hours after each was parasitized, survival of the ticks and mites were observed, and the ticks and mites were removed from the dogs. The ticks were classified according to whether or not the ticks were attached, and the survival state was determined.
In the evaluation of efficacy, the same geometric mean calculation as that in Test Example 2 was used.

[2] = test system: American dog mites (Dermacentor variabilis) in nymph stage; assay: Acaricidal test of rodent (RAT) in vivo; conditions: Sprague-Dawley rat, topical 0.05 ml in acetone, effective component concentration of 1% or less (10 mg/ml), 48 hours after the treatment, read-out: efficacy (reduction % in the number of surviving mites)
Source text: Evaluation of the test compounds can be performed by a method obtained by modifying the analysis method described in “J. Med. Entomol. 43 (3) 526-532 (2006)”. In the analysis method, other mite species (in references, described as a mite of Amblyomma americanum) can be also used, and, for example, other mite species such as a mite of Dermacentor variabilis can be also used. A mite-holding unit (which was configured of small size nipples, a crew cap with a vent, and a reinforcing rubber washer) was attached to the back of an adult Sprague-Dawley rat. After attaching the holding unit, 0.05 ml of a test compound dissolved in acetone was applied topically on the skin surface inside the holding unit. After leaving to stand for a sufficient period of time to evaporate the acetone, about 10 American dog mites (Dermacentor variabilis) in nymph stage, to which food was not given, were put into each holding unit. Three to five rats per treatment group were used. 48 hours after the treatment, the holding unit was removed, and the surviving mites and dead mites were counted. In the evaluation of efficacy, geometric mean calculation was used. First, the total number of surviving mites was converted by the natural logarithm transformation by adding 1 (Ln total number+1). That is, by adding 1 to each total number, the total number which was zero was adjusted. The geometric mean (GM) of the total number of mites in a treatment group was obtained by inverse-transforming the mean transformation value of the total number of treatment groups and subtracting 1. The non-treated control group was used for comparison with the groups in which the test compound was given for calculation of efficacy % (reduction % in the number of surviving mites). […] Efficacy [%]=[(survival mites GM number of control−survival mites GM number of treatment groups)/(survival mites GM number of control)×100

[3] = test system: Rhipicephalus sanguineus; assay: Parasite extermination test of dog in vivo, R. sanguineus
Protocol: Each type of the test compounds was applied to four dogs. One day before treatment (−1 day) of the test compound, about 50 adults of Rhipicephalus sanguineus to which food was not given, per dog, were parasitized. It was estimated that 50% of the 50 ticks were male and 50% of the 50 ticks were female. Separately, the tested compound was dissolved in a mixed solvent consisting of 80% by volume of benzyl alcohol and 20% by volume of isopropyl myristate such that the concentration became 50 mg/ml, whereby a test solution was prepared. On zeroth day, several different spots of the interscapular region were treated with the test solution by “topical spot-on” such that the test compound was treated per 20 mg/kg per body weight of a dog. For comparison, a negative control was also prepared. In order to evaluate the treatment against the parasitized ticks, survival of the ticks were observed on the 2nd day (48 hours after the treatment). To evaluate the durability, on the 5th, 12th, 19th, and 28th day, 50 ticks to which food was not given, per dog, were parasitized again. On the 7th, 14th, 21 st, 30th and 35th day, 48 hours after each was parasitized, survival of the ticks and mites were observed, and the ticks and mites were removed from the dogs. The ticks were classified according to whether or not the ticks were attached, and the survival state was determined. In the evaluation of efficacy, the same geometric mean calculation as that in Test Example 2 was used. […] In addition, for Test Compound 1 to 32, the test compounds were treated per 5 mg/kg per body weight of an individual with respect to a dog.

[4] = test system: American dog mites (Dermacentor variabilis); assay: Parasite extermination test of dog in vivo, D. variabilis; conditions: topical spot-on 20 mg/kg, 35th day
Protocol: Each type of the test compounds was applied to four dogs. One day before treatment (−1 day) of the test compound, about 50 adults of Rhipicephalus sanguineus to which food was not given, per dog, were parasitized. It was estimated that 50% of the 50 ticks were male and 50% of the 50 ticks were female. Separately, the tested compound was dissolved in a mixed solvent consisting of 80% by volume of benzyl alcohol and 20% by volume of isopropyl myristate such that the concentration became 50 mg/ml, whereby a test solution was prepared. On zeroth day, several different spots of the interscapular region were treated with the test solution by “topical spot-on” such that the test compound was treated per 20 mg/kg per body weight of a dog. For comparison, a negative control was also prepared. Furthermore, on the 33rd day, 50 adult American dog mites (Dermacentor variabilis) to which food was not given were parasitized. On the 7th, 14th, 21 st, 30th and 35th day, 48 hours after each was parasitized, survival of the ticks and mites were observed, and the ticks and mites were removed from the dogs. The ticks were classified according to whether or not the ticks were attached, and the survival state was determined. In the evaluation of efficacy, the same geometric mean calculation as that in Test Example 2 was used. As the test compounds, 1-3, 1-5, 1-10, 1-28, 1-29, and 1-71 were used. Here, the test using American dog mites was performed on 1-28 and 1-71.

[5] = topical spot-on 20 mg/kg, 2nd day
[6] = topical spot-on 20 mg/kg, 7th day
[7] = topical spot-on 20 mg/kg, 14th day
[8] = topical spot-on 20 mg/kg, 21st day
[9] = topical spot-on 20 mg/kg, 30th day
[10] = 5 mg/kg per body weight, 2nd day
[11] = 5 mg/kg per body weight, 5th day

Structure (SMILES)	average number of surviving parasites ([1]; 14th day)	efficacy (%) ([1]; 14th day)	average number of surviving parasites ([1]; 30th day)	efficacy (%) ([1]; 30th day)	pest or weed control at up to 10000 µg/mL [2]	average number of surviving parasites [3, 5]	efficacy (%) [3, 5]	average number of surviving parasites [3, 6]	efficacy (%) [3, 6]	average number of surviving parasites [3, 7]	efficacy (%) [3, 7]	average number of surviving parasites [3, 8]	efficacy (%) [3, 8]	average number of surviving parasites [3, 9]	efficacy (%) [3, 9]	also measured
C=C1SC(=N\c2ccc(C)cc2)/C(=C/Sc2ccccc2)CC1(C)C [Compound 1-3]	0	100%	0	100%	≥ 50%	0.5	98.6%	0	100%	0	100%	0	100%	6.0	92.3%	–
C=C1SC(=N\c2ccc(C)cc2)/C(=C/Sc2ccccc2)CC12CCCCC2 [Compound 1-5]	0	100%	8.8	98.2%	≥ 50%	0	100%	0	100%	0	100%	1.8	95.4%	6.5	86.8%	–
C=C1SC(=N\c2ccc(C)cc2)/C(=C/Sc2cccs2)CC1(C)C [Compound 1-10]	0	100%	0	100%	≥ 50%	0.5	98.9%	0	100%	0	100%	0.5	99.5%	4.3	95.4%	–
C=C1SC(=N\c2ccc(C)cc2)/C(=C/Sc2ccccc2)C(C)C1(C)C (stereo not shown) [Compound 1-28]	0	100%	0	100%	≥ 50%	0.25	99.3%	0	100%	0	100%	0	100%	1.8	97.8%	average number of surviving parasites [4]: 7.0; efficacy (%) [4]: 88.3%
C=C1SC(=N\c2ccc(C)cc2)/C(=C/Sc2cccs2)C(C)C1(C)C (stereo not shown) [Compound 1-29]	0	100%	0	100%	≥ 50%	1.3	97.3%	0	100%	0	100%	0	100%	0	100%	–
Cc1ccc(/N=C2\SC(C)(C)CC\C2=C/Sc2cccc(C)c2)cc1 [Compound 1-31]	–	–	–	–	≥ 50%	–	–	–	–	–	–	–	–	–	–	–
Cc1ccc(/N=C2\SC(C)(C)CC\C2=C/Sc2ccccc2F)cc1 [Compound 1-32]	–	–	–	–	≥ 50%	–	–	–	–	–	–	–	–	–	–	average number of surviving parasites [3, 10]: 0; efficacy (%) [3, 10]: (76.6%); average number of surviving parasites [3, 11]: 0; efficacy (%) [3, 11]: (100%)
CC(C)=C1CC(C)C(=C\SCc2ccc(Cl)cc2)/C(=N/c2ccc(C)cc2)S1 (stereo not shown) [Compound 1-71]	0	100%	0	100%	≥ 50%	5.0	90%	0	100%	0	100%	1.8	96.9%	0	86.8%	average number of surviving parasites [4]: 9.8; efficacy (%) [4]: 80.3%
